Where “and” joins values, the source holds several entries; their conditions need not be identical. Equal values may be shown once. Read-outs that look alike come from different tables or passages of the source.
Molecular target: T1, Human PAK1 (Homo sapiens, UniProt Q13153)
T1 construct: purchased Promega V4479
Experiment: PAK1 inhibitory activity, ADP-Glo kinase assay
Type: biochemical
Details: Human PAK1 25 ng, 10 min preincubation with test compound, 40 min with ATP/substrate mix, room temperature, luminescence
Protocol: The PAK inhibitory activities of the dehydrokawain compounds, mimosine or derivatives thereof and cucurbitacin I were determined. Assay of the PAK1 inhibitory activity was carried out using an ADP-Glo™ kinase assay kit (V4479, Promega, Madison, Wis.). Human PAK1 (10 μL) at a reaction concentration of 25 ng was incubated with 5 μL of the test compounds at the respective concentrations for 10 minutes. At the beginning of the reaction, 2.5×ATP/substrate mix (10 μL) was added and incubated for 40 minutes. The reaction was terminated by adding […]. In addition, 50 μL of Kinase detection reagent was added to cause the conversion of ADP to ATP and the emission reaction of freshly synthesized ATP. After incubation for 30 minutes, the intensity of emission in each well was measured by a Microplate Reader (MTP-880Lab, Corona) for 0.5 seconds as integration time. To the blank well was added all of the ingredients except for the test compounds and enzymes. The procedure was conducted at room temperature all the time. The inhibition rate was determined as the value on the kinase activity of control to which the inhibitor was not added.

[1] = read-out: IC50 (PAK1 inhibitory activity)

T1 sequence (Q13153 whole entry): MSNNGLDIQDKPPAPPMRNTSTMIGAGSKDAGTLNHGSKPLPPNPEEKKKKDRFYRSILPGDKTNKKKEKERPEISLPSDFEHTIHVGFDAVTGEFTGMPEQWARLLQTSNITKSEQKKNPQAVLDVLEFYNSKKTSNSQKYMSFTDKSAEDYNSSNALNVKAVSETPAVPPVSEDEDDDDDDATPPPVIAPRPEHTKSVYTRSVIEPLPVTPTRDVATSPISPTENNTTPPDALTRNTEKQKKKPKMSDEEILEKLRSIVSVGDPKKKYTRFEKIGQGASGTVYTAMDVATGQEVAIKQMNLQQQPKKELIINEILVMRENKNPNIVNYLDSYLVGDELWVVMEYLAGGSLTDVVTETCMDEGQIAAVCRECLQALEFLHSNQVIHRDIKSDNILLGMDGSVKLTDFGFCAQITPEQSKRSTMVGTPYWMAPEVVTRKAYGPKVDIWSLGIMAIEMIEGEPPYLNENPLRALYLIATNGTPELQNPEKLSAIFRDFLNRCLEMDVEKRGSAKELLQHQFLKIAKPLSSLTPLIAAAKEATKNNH

IC50 [1] | SMILES | IC50 (IC50 (PAK1 inhibitory activity)) [µM]
0.13 µM | N[C@@H](Cn1ccc(=O)c(O)c1)C(=O)N[C@@H](Cc1ccccc1)C(=O)N[C@@H](Cc1ccccc1)C(=O)N[C@@H](Cc1ccc(O)cc1)C(=O)O [MFFY] | –
17 µM and 17.1 µM | COc1cc(/C=C/c2ccccc2)oc(=O)c1 [DK, 5,6-dehydrokawain] | –
1.2 µM | COc1cc(CCc2ccc(OC)c(OC)c2)oc(=O)c1 [H2, 6-(3,4-dimethoxyphenethyl)-4-methoxy-2H-pyran-2-one] | –
30 µM | N[C@H](CO)Cn1ccc(=O)c(O)c1 [Mimosinol, mimosinol] | –
2 µM | COc1cc(CCc2ccc(O)c(O)c2)oc(=O)c1 [H3, 6-(3,4-dihydroxyphenethyl)-4-methoxy-2H-pyran-2-one] | –
37 µM | N[C@@H](Cn1ccc(=O)c(O)c1)C(=O)O [Mimosine, β-[N-(3-hydroxy-4-pyridone)]-α-aminopropionic acid] | –
1.6 µM | COc1cc(/C=C/c2ccc(OC)c(OC)c2)oc(=O)c1 [H1, 6-(3,4-dimethoxystyryl)-4-methoxy-2H-pyran-2-one] | –
0.6 µM | N[C@@H](Cn1ccc(=O)c(O)c1)C(=O)N[C@@H](Cc1ccccc1)C(=O)N[C@@H](Cc1c[nH]c2ccccc12)C(=O)N[C@@H](Cc1ccc(O)cc1)C(=O)O [MFWY] | –
340 µM | O=c1c(O)c(-c2ccc(O)c(O)c2)oc2cc(O)cc(O)c12 [Quercetin, quercetin, reference compound] | –
10 µM and 10.3 µM | COc1cc(CCc2ccccc2)oc(=O)c1 [DDK, dihydro-5,6-dehydrokawain] | –
2.3 µM | N[C@@H](Cn1ccc(=O)c(O)c1)C(=O)N[C@@H](Cc1ccccc1)C(=O)N[C@@H](Cc1ccc(O)cc1)C(=O)N[C@@H](Cc1ccc(O)cc1)C(=O)O [MFYY] | –
15 µM | Oc1ccc(C=Cc2cc(O)cc(O)c2)cc1 [Resveratrol, resveratrol, reference compound] | –
– | CC(C)(O)/C=C/C(=O)[C@](C)(O)[C@H]1[C@H](O)C[C@@]2(C)[C@@H]3CC=C4C(C=C(O)C(=O)C4(C)C)[C@]3(C)C(=O)C[C@]12C (stereo partly shown) [Cucurbitacin I, cucurbitacin I] | 19

Reference: US20170349548A1, “P21-ACTIVATED KINASE INHIBITOR” (Biosystem Consulting Limited Company, priority 2014, published 2017)
